Measured values reported in patent US8324267B2, “Kinase inhibitors and the use thereof” (Forschungzentrum Karlsruhe GmbH, priority 2001, dated 2012).

Columns and labels:
[1] = test system: Human umbilical vein endothelial cells (HUVEC); assay: Endothelial cell proliferation, 3H-thymidine incorporation; assay type: cell-based; settings: 24 h, FIG. 2
Protocol: Human umbilical vein endothelial cells (HUVEC) underwent serum-starved cultivation for 24 h. The cells were then preincubated with the appropriate compounds for 2 h and subsequently cultivated in the presence of the inhibitors with VEGF (MAE87) or bFGF (MAE106, MAZ51) for a further 24 h. The cells were then incubated with ^3H-thymidine. The amount of radioactivity incorporated into the cellular DNA was measured. All the experiments were carried out in triplicate.
HUVE cells were seeded in 100 μl/well (10^5 cells/ml) in 96-well culture plates and left to rest overnight. The cells were then starved with 50 μl of serum-free medium/well for 24 h. Subsequently, 50 μl of various concentrations of the test substances in serum-free medium (contains 2% DMSO) were added and incubated at 37° C. for 2 h. The medium containing the test compounds was removed and replaced by 50 μl of fresh medium with bFGF (12.5 ng/ml) or VEGF (100 ng/ml). Fresh dilutions of the doubly concentrated test substances in serum-free medium with 2% DMSO were added to the cells in 50 μl/well. The final concentration of DMSO was always 1%. After 24 h, ^3H-thymidine (1 μCi/well) was added, and the cells were incubated for a further 4-6 h. To analyze the incorporated radioactivity, the cells were trypsinized for 30 min and harvested with the aid of a harvester 96 cell (Tomtec) and fixed on a glass fiber membrane filter. The immobilized radioactivity was quantified with the aid of a MicroBeta TriLux liquid scintillation luminescence counter. The result is depicted in FIG. 2.
FIG. 2: Measurement of the (^3H)-thymidine incorporation into human endothelial cells (HUVEC) as a function of the concentration of inhibitors employed (MAE87, MAE106 and MAZ51). The inhibition of cell proliferation by MAE87, MAE106 and MAZ51 is dose-dependent in this case.

ErbB2 = ErbB2 (Homo sapiens, UniProt P04626); assay: In vitro tyrosine kinase assay (ELISA, GST kinase, polyGlu,Tyr 4:1 acceptor); assay type: biochemical; settings: read-out: inhibition (−) or stimulation (+) of kinase activity relative to the control; for inhibition at 1 µg/mL: inhibitor 1 μg/ml; for inhibition at 10 µg/mL: inhibitor 10 μg/ml
Protocol: (§1) The inhibition of various receptor tyrosine kinases in vitro by MAE87, MAE106 and MAZ51 was investigated. The inhibitors were investigated in 2 different concentrations (1 μg/ml and 10 μg/ml). The inhibition is stated in %. “+”=stimulation of kinase activity relative to the control,
(§2) “−”=inhibition of kinase activity relative to the control.
(§3) The activity of the RTK inhibitors were determined with the aid of an ELISA. In this assay, the corresponding kinases were employed as recombinant GST fusion proteins (glutathione S-transferase). Synthetic polyGlu, Tyr 4:1 is used as acceptor. The ability of different concentrations of the test substances to inhibit the RTK-mediated phosphorylation of the abovementioned acceptor was assessed. All the tests were carried out in duplicate.
(§4) ELISA plates were coated with 0.2 mg/ml of polyGlu, Tyr 4:1 in 100 mM bicarbonate buffer (pH 9.6) overnight. This solution was removed and the microtiter plates were washed twice with TBS buffer (10 mM Tris-HCl, pH 8.1, 100 mM NaCl) and then blocked with 5% BSA/TBS for 30 min. 50 μl of test substance (2 or 20 μg/ml in 10% DMSO), 25 μl of GST kinase in 4× kinase buffer (200 mM HEPES, 100 mM NaCl, 80 μM Na3VO4 and 0.04% BSA) were introduced. The reaction was started by adding 25 μl of 160 μM ATP (in 40 mM MnCl2) as substrate of the kinases. The final concentrations of the test compounds is thus 1 or 10 μg/ml in 5% DMSO. The GST fusion proteins were employed in the following concentrations. VEGFR-2 50 NG/well, VEGFR-3 300 ng/well, Tie2 300 ng/well, EGFR 50 ng/well, ErbB2 200 ng/well, IGF-1R 50 ng/well, FGFR1 200 ng/well. The reaction mixture was incubated at 30° C. for 90 min. The kinase reaction was stopped by adding 50 μl of 30 mM EDTA/well. The microtiter plates were washed twice with 0.05% Tween20/TBS. Anti-phosphotyrosine antibody (1:500) was added in 0.05% Tween20/TBS (with 0.5% BSA, 0.025% skimmed milk powder and 100 μM Na3VO4) and incubated at 37° C. for 1 h. The microtiter plates were washed three times with 0.05% Tween20/TBS. The HRP-conjugated detection autibody (1:1000) was added in 0.05% Tween20/TBS (with 0.5% BSA, 0.025% skimmed milk powder and 100 μM Na3VO4) and incubated at 37° C. for 1 h. The microtiter plates were washed three times with 0.05% Tween20/TBS. ABTS (2,2′-azino-di-(3-ethylbenz-thiazoline-6-sulfonate)) substrate (Roche Diagnostics GmbH, Mannheim) was added. The OD was determined at 405 nm using an ELISA reader.

IGF1R = IGF1R (Homo sapiens, UniProt P08069); assay: as above; assay type: biochemical; settings: read-out: inhibition (−) or stimulation (+) of kinase activity relative to the control; for inhibition at 1 µg/mL: inhibitor 1 μg/ml; for inhibition at 10 µg/mL: inhibitor 10 μg/ml
Protocol: as §1, §2, §3, §4

VEGFR-2 = VEGFR-2 (Homo sapiens, UniProt P35968); assay: as above; assay type: biochemical; settings: read-out: inhibition (−) or stimulation (+) of kinase activity relative to the control; for inhibition at 1 µg/mL: inhibitor 1 μg/ml; for inhibition at 10 µg/mL: inhibitor 10 μg/ml
Protocol: as §1, §2, §3, §4

FGFR1 = FGFR1 (Homo sapiens, UniProt P11362); assay: as above; assay type: biochemical; settings: read-out: inhibition (−) or stimulation (+) of kinase activity relative to the control; for inhibition at 1 µg/mL: inhibitor 1 μg/ml; for inhibition at 10 µg/mL: inhibitor 10 μg/ml
Protocol: as §1, §2, §3, §4

VEGFR-3 = VEGFR-3 (Homo sapiens, UniProt P35916); assay: as above; assay type: biochemical; settings: read-out: inhibition (−) or stimulation (+) of kinase activity relative to the control; for inhibition at 1 µg/mL: inhibitor 1 μg/ml; for inhibition at 10 µg/mL: inhibitor 10 μg/ml
Protocol: as §1, §2, §3, §4

Tie2 = Tie2 (Homo sapiens, UniProt Q02763); assay: as above; assay type: biochemical; settings: read-out: inhibition (−) or stimulation (+) of kinase activity relative to the control; for inhibition at 1 µg/mL: inhibitor 1 μg/ml; for inhibition at 10 µg/mL: inhibitor 10 μg/ml
Protocol: as §1, §2, §3, §4

EGFR = EGFR (Homo sapiens, UniProt P00533); assay: as above; assay type: biochemical; settings: read-out: inhibition (−) or stimulation (+) of kinase activity relative to the control; for inhibition at 1 µg/mL: inhibitor 1 μg/ml; for inhibition at 10 µg/mL: inhibitor 10 μg/ml
Protocol: as §1, §2, §3, §4

IGF1R, sequence (P08069 31-1367): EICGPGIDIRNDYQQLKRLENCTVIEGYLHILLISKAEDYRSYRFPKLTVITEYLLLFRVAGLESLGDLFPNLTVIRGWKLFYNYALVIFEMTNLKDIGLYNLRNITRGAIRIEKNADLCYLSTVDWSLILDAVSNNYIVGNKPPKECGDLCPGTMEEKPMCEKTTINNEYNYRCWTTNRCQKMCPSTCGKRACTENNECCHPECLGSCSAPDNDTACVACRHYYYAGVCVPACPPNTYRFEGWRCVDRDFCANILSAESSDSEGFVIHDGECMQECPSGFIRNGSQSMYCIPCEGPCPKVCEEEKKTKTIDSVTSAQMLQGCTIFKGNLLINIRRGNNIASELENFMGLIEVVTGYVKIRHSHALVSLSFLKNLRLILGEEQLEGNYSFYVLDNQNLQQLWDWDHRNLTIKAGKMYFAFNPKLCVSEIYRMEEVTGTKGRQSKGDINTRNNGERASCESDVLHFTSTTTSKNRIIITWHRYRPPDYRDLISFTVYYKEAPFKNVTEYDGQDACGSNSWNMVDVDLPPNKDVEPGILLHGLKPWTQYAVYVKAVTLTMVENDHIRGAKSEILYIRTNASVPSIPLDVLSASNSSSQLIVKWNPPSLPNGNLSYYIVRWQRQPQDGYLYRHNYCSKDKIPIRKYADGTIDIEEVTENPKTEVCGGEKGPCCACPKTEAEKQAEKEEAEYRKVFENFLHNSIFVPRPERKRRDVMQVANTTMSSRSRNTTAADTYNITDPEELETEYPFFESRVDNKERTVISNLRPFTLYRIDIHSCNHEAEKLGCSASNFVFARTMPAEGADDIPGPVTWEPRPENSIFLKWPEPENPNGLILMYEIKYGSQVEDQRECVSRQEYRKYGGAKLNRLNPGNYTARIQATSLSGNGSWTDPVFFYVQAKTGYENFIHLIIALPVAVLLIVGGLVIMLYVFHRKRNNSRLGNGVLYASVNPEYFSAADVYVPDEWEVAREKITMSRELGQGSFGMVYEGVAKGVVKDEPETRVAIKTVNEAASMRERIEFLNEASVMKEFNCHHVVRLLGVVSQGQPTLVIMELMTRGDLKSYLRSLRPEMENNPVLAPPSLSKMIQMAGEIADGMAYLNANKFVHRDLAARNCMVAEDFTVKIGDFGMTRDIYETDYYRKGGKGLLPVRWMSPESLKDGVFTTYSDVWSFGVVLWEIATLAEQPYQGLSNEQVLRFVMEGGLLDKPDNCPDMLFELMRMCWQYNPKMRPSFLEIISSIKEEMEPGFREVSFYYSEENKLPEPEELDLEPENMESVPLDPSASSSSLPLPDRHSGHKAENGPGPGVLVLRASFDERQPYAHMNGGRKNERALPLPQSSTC
VEGFR-3, sequence (P35916 25-1363): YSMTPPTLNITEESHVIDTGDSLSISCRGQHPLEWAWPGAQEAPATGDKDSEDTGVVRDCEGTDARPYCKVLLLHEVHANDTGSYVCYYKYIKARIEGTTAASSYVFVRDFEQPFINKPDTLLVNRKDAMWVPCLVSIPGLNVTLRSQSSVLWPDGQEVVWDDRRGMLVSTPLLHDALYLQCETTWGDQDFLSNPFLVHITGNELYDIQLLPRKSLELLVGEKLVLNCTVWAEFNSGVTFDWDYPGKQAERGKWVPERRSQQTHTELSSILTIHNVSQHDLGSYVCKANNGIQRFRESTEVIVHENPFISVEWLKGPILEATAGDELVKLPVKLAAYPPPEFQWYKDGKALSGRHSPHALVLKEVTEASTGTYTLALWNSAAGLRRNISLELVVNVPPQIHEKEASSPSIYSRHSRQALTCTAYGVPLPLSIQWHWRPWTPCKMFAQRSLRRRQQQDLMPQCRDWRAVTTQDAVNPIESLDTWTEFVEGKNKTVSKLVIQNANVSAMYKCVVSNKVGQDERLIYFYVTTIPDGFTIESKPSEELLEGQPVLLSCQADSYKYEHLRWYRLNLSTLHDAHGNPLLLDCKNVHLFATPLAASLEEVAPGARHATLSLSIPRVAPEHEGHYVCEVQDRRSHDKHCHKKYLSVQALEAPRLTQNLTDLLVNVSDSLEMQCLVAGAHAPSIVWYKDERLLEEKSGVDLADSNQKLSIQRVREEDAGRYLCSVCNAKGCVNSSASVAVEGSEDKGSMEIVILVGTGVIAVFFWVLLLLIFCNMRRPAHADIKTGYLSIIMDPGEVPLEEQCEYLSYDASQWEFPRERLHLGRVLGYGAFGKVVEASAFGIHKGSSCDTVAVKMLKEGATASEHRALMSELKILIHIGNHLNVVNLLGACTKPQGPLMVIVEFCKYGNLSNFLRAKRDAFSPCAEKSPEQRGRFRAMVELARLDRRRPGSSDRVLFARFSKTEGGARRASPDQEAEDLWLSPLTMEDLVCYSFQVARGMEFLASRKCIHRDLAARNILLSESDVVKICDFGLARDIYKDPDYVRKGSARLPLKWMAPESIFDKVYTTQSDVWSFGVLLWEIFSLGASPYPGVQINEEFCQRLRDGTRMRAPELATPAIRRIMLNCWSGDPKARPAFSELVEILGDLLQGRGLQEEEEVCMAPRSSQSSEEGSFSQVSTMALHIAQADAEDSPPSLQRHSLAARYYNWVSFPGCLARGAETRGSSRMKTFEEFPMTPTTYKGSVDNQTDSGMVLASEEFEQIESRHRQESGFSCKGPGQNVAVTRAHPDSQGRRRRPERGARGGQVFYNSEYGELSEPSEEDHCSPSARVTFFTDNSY
EGFR, sequence (P00533 25-1210): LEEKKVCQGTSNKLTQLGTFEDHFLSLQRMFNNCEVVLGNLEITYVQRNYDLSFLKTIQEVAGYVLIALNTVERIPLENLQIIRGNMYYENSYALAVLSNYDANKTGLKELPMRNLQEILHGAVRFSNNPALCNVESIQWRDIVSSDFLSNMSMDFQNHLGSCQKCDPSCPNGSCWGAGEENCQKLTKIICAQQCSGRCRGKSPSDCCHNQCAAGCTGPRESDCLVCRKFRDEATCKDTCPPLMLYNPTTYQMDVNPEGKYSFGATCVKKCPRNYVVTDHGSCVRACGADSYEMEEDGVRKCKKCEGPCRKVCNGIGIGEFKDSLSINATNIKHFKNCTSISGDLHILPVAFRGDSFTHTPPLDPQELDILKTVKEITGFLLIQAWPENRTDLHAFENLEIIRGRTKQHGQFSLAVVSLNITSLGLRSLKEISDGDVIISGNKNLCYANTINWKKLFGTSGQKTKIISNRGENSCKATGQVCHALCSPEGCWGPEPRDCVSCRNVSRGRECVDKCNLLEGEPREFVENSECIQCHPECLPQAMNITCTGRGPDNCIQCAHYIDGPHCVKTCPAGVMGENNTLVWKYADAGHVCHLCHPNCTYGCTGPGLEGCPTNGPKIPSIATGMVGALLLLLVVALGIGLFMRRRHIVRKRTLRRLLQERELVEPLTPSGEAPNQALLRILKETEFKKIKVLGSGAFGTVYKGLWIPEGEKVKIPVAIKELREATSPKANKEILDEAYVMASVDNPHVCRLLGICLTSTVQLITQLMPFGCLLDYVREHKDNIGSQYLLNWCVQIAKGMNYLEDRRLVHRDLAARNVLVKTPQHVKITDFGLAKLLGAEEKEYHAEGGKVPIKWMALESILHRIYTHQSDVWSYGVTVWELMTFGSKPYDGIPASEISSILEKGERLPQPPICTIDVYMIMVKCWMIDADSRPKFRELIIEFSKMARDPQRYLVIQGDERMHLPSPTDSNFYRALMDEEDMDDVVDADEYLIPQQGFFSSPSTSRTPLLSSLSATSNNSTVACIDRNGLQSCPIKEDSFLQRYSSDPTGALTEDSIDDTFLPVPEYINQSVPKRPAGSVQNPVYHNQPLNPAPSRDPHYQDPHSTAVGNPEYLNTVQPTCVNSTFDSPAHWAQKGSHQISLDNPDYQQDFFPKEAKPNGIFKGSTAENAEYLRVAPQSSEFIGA
ErbB2, sequence (P04626 23-1255): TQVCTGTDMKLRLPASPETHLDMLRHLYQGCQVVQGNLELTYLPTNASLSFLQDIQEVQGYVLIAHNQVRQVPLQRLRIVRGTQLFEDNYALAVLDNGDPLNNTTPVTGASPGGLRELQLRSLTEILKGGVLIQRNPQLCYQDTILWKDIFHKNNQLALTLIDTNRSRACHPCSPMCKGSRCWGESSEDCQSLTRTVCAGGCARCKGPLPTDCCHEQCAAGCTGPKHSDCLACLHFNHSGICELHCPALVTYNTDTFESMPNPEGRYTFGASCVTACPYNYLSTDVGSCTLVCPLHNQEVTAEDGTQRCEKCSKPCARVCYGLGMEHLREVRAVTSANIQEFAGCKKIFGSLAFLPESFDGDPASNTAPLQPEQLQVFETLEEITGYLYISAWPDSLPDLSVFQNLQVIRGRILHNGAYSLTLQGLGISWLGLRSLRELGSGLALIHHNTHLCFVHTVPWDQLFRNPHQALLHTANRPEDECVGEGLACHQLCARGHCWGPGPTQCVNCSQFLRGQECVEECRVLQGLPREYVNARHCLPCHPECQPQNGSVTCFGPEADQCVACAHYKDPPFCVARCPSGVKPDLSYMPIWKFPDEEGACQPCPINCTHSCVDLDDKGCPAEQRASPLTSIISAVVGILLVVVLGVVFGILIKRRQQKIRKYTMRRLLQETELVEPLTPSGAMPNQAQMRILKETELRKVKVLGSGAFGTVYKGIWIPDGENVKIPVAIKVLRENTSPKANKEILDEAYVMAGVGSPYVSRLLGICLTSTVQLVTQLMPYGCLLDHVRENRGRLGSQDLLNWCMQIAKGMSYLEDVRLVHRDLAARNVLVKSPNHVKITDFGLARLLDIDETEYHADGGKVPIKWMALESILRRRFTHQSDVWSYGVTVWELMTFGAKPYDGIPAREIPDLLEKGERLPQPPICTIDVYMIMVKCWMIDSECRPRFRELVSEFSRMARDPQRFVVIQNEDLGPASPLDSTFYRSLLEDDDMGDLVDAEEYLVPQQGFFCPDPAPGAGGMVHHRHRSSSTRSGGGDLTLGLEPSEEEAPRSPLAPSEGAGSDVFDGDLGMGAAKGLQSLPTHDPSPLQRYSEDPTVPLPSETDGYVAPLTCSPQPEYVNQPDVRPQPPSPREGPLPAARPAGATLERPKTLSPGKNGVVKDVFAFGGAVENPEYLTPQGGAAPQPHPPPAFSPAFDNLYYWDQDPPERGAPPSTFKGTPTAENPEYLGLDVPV

| inhibition at 1 µg/mL (ErbB2) [%] | inhibition at 10 µg/mL (ErbB2) [%] | inhibition at 1 µg/mL (IGF1R) [%] | inhibition at 10 µg/mL (IGF1R) [%] | inhibition at 1 µg/mL (VEGFR-2) [%] | inhibition at 10 µg/mL (VEGFR-2) [%] | inhibition at 1 µg/mL (FGFR1) [%] | inhibition at 10 µg/mL (FGFR1) [%] | inhibition at 1 µg/mL (VEGFR-3) [%] | inhibition at 10 µg/mL (VEGFR-3) [%] | inhibition at 1 µg/mL (Tie2) [%] | inhibition at 10 µg/mL (Tie2) [%] | inhibition at 1 µg/mL (EGFR) [%] | inhibition at 10 µg/mL (EGFR) [%] | Compound | inhibition of cell proliferation (3H-thymidine incorporation) ([1]; bFGF stimulated) | inhibition of cell proliferation (3H-thymidine incorporation) ([1]; VEGF stimulated) |
| --- | --- | --- | --- | --- | --- | --- | --- | --- | --- | --- | --- | --- | --- | --- | --- | --- |
| 11 | 39 | 10 | 68 | 8 | 74 | -1 | 5 | 4 | 35 | 7 | 27 | 25 | 58 | CN(C)c1ccc(C=C2C(=O)Nc3ccccc32)c2ccccc12 [MAZ51, 3-(4-Dimethylaminonaphthalen-1-ylmethylene)-1,3-dihydroindol-2-one] | dose-dependent |  |
| 45 | 84 | 63 | 94 | 46 | 77 | 50 | 94 | 9 | 74 | -1 | 65 | 70 | 86 | O=C1Nc2ccccc2C1=Cc1ccc(O)cc1O [MAE87, 3-(2,4-Dihydroxybenzylidene)-1,3-dihydroindol-2-one] |  | dose-dependent |
| -4 | 41 | 10 | 71 | -21 | 58 | -5 | 1 | -1 | 57 | 5 | 28 | 5 | 64 | COc1ccc(C=C2C(=O)Nc3ccccc32)cc1F [MAE106, 3-(3-Fluoro-4-methoxybenzylidene)-1,3-dihydroindole-2-one] | dose-dependent |  |
